Measurements taken from US11642350B2, “Agent for preventing myopia, treating myopia, and/or preventing myopia progression comprising tiotropium as active ingredient” (priority 2017, dated 2023).
Counter-ions that a name gives are not always drawn.

What was measured:
[1] = test system: pupil diameter of the mice; assay: Evaluation of mydriatic action (pupil diameter after a single eyedrop); assay type: in vivo; conditions: mouse; for Pupil diameter before administration (mm): before the eyedrop (baseline); for Maximum pupil diameter (mm) / Measurement time of maximum pupil diameter: single dose 5 μL to both eyes; for Maximum pupil diameter (mm): longest average among 1, 2, 4 and 24 h
Experimental: Test 3. Evaluation of Mydriatic Action
Tiotropium bromide hydrate and glycerin were dissolved in water for injection to prepare 0.01% (w/v), 0.1% (w/v), and 2% (w/v) tiotropium ophthalmic solutions without adjusting pH.
In a similar way, atropine sulfate hydrate and glycerin were dissolved in water for injection to prepare 0.01% (w/v), and 0.1% (w/v) atropine ophthalmic solutions without adjusting pH.
A single dose (5 μL) of each prepared ophthalmic solution was administered to both eyes of mice (6 eyes of 3 mice per each ophthalmic solution). Before the administration (eyedrop), and 1, 2, 4 and 24 hours after the administration, each pupil diameter of the mice was measured. The measured pupil diameters of the mice at each measurement time per each test sample were averaged to obtain each average value as each average pupil diameter. Among each average pupil diameter at each measurement time, the longest diameter was defined as the maximum pupil diameter.

[2] = test system: Myopia Mice Model; assay: Suppression of axial length elongation in myopia mice model (spectacle lens-induced, eyedrop); assay type: in vivo, mice (C57BL/6J); conditions: 7 μL topically once a day, post-natal day 33 to 61, -15D lens, mouse
Experimental: Test 2. Test About Suppression of Axial Length Elongation in Myopia Mice Model
Tiotropium bromide hydrate and glycerin were dissolved in water for injection to prepare 0.0001% (w/v) and 0.01% (w/v) tiotropium ophthalmic solutions without adjusting pH.
In a similar way, atropine sulfate hydrate and glycerin were dissolved in water for injection to prepare 0.1% (w/v) atropine ophthalmic solution without adjusting pH. The vehicle (control) was isotonic water which was prepared with water for injection and glycerin.
Spectacle lens-induced myopia model was established by placing −15D hard lens on the right eye of mice (C57BL/6J), which was served as the experimental eye, at post-natal days 18. Briefly, a −15D lens was glued to an annulus (with 8 mm base curve) of Velcro. This mating piece was then attached to the Velcro that had been previously glued to the hair around the right experimental eye using a cyanoacrylate. An air gap of 1.5 mm existed between the back part of the lens and the anterior surface of the cornea.
Ocular biometry such as axial length measurement was done using in vivo Optical Low Coherence Interferometry (OLCI-AcMaster). The axial length was measured at post-natal days 33 and 61.
The ratio for suppressing the axial length elongation with each example was calculated by the following equation: […]
Tiotropium (at 0.0001% or 0.01%) or atropine (at 0.1%) was administered once a day post-natal day 33 until day 61 in the spectacle lens-induced myopia model. 7 μL of each drug was administered topically to the right eye in dim red light at the each day.

[3] = test system: Myopia Chick Model; assay: Suppression of axial length elongation in myopia chick model (goggle-induced, intravitreal administration); assay type: in vivo, chicks (white leghorns); conditions: 20 μL intravitreally on day 0, 2 and 4, axial length measured on day 6
Experimental: Test 1. Test About Suppression of Axial Length Elongation in Myopia Chick Model
Tiotropium bromide hydrate was dissolved in saline to prepare 0.1 mM and 10 mM tiotropium solutions.
And, atropine sulfate hydrate was dissolved in saline to prepare 100 mM atropine solution as a reference example.
As a control, saline was used.
A test tube having a diameter of 18 mm was cut off at the level of 10 mm from the bottom, and the cutting circle of the cut-off bottom part was bonded to a flat rubber packing with an adhesive agent to prepare a lens (goggle). 7-day-old chicks (white leghorns) were obtained, and the prepared goggle was attached to the right eye of each chick with an adhesive agent to induce myopia to the chicks. The left eye thereof was its control.
To each of the tiotropium administration groups, 20 μL of each prepared tiotropium solution was intravitreally administered on the day that the goggle was fixed (on day 0), on day 2, and on day 4. […]
On day 6 from the myopia induction, the axial length of right and left eyeballs was measured with a ultrasound axial length measurement ECHOSCAN US-500 (NIDEK CO., LTD.) (A-scan). The difference of axial lengths and the suppression rate of the axial length elongation were calculated by the following formulae.

[4] = 0.01% (w/v) ophthalmic solution group
[5] = 0.01% (w/v) ophthalmic solution
[6] = 0.1% (w/v) ophthalmic solution group
[7] = 0.0001% (w/v) ophthalmic solution

| Compound | Pupil diameter before administration (mm) [1, 4] [mm] | Maximum pupil diameter (mm) [1, 5] [mm] | Measurement time of maximum pupil diameter [1, 5] [h] | Pupil diameter before administration (mm) [1, 6] [mm] | Maximum pupil diameter (mm) ([1]; 0.1% (w/v) ophthalmic solution) | Measurement time of maximum pupil diameter ([1]; 0.1% (w/v) ophthalmic solution) [h] | Mean (μm) change in the axial length ([2]; 0.1% (w/v) ophthalmic solution) [μm] | Suppression rate (%) of the axial length elongation ([2]; 0.1% (w/v) ophthalmic solution) [%] | Suppression rate (%) of the axial length elongation ([3]; 100 mM atropine solution (reference example)) [%] | Pupil diameter before administration (mm) ([1]; 2% (w/v) ophthalmic solution group) | Maximum pupil diameter (mm) ([1]; 2% (w/v) ophthalmic solution) | Measurement time of maximum pupil diameter ([1]; 2% (w/v) ophthalmic solution) [h] | Mean (μm) change in the axial length [2, 7] [μm] | Suppression rate (%) of the axial length elongation [2, 7] [%] | Mean (μm) change in the axial length [2, 5] [μm] | Suppression rate (%) of the axial length elongation [2, 5] [%] | Suppression rate (%) of the axial length elongation ([3]; 0.1 mM solution) [%] |
| --- | --- | --- | --- | --- | --- | --- | --- | --- | --- | --- | --- | --- | --- | --- | --- | --- | --- |
| CN1[C@@H]2CC[C@H]1C[C@@H](OC(=O)C(CO)c1ccccc1)C2 (some centres unmarked) [atropine, atropine sulfate hydrate] | 0.42 | 1.43 | 1 | 0.40 | 1.96 | 2 | 111.61 | 29.50 | 83 | – | – | – | – | – | – | – | – |
| C[N+]1(C)C2CC(OC(=O)C(O)(c3cccs3)c3cccs3)CC1C1OC12 (stereo not drawn) [tiotropium, (1α,2β,4β,5α,7β)-7-[(hydroxydi-2-thienylacetyl)oxy]-9,9-dimethyl-3-oxa-9-azoniatricyclo[3.3.1.0^2,4]nonane bromide monohydrate] | 0.36 | 1.24 | 4 | 0.43 | 2.23 | 2 | – | – | – | 0.36 | 2.15 | 1 | 135.84 | 14.20 | 112.95 | 28.66 | 45 |
